From ChEMBL document CHEMBL6096634, “Exploration of novel 20S proteasome activators featuring anthraquinone structures and their application in hypoxic cardiomyocyte protection” (Bioorg Med Chem, 2024)
Several values for one entry are separate records, joined by “and”; a condition that tells them apart may be missing. Equal values may be shown once. Values belong to the molecule of their own block, whether it stands above or below them. Activity calls are given as the source filed them. No cut-off for these calls is given here.

How the values were obtained:
20S proteasome [1] = test: (§1) Activation of human erythrocyte-derived 20s proteosome using CT-L as peptide substrate by fluorescence based analysis; type: cell-based
[2] = molecular target: T1, 20S proteasome (Homo sapiens) (UniProt P49721+P20618+P28074+P28062+P28065+P28072+P25786+P25787+P25788+P25789+P28066+P60900+O14818+Q8TAA3+P40306+A5LHX3+P49720+P28070+Q99436); test: as §1; type: cell-based; details: for EC200: filed as activator
[3] = molecular target: T1, 20S proteasome (Homo sapiens); test: Activation of human erythrocyte-derived 20s proteosome using CT-L as peptide substrate at 10 uM by fluorescence based analysis relative to control; type: cell-based; details: filed as activator
[4] = molecular target: T1, 20S proteasome (Homo sapiens); test: (§2) Activation of human erythrocyte-derived 20s proteosome using T-L as peptide substrate by fluorescence based analysis; type: cell-based; details: filed as activator
H9c2 [5] = test: Protection against hypoxia-induced cell damage in rat H9c2 cells at 0.025 uM incubated for 14 hrs by MTT assay; type: functional, cell-based
H9c2 [6] = test: Upregulation of Ki-67 expression in rat H9c2 cells at 0.25 uM under hypoxic condition by qRT-PCR analysis; type: functional, cell-based
H9c2 [7] = test: Upregulation of Ki-67 expression in rat H9c2 cells at 0.25 uM under normoxic condition by qRT-PCR analysis; type: functional, cell-based
H9c2 [8] = test: Effect on PCNA expression in rat H9c2 cells at 0.25 uM under hypoxic condition by qRT-PCR analysis; type: functional, cell-based
H9c2 [9] = test: Effect on PCNA expression in rat H9c2 cells at 0.25 uM under normoxic condition by qRT-PCR analysis; type: functional, cell-based
HEK293 = test: Inhibition of […]-induced ER stress in HEK293 cells harbouring XBP1-delta DBD-Luc cells assessed as decrease in luciferase activity incubated for 8 hrs by […]; type: functional, cell-based; details: Homo sapiens, dose 10-20 µM
H9c2 [10] = test: Anti-apoptotic activity in rat H9c2 cells assessed as late apoptotic cells at 0.1 uM preincubated for 24 hrs followed by incubation under hypoxic condition for 18 hrs by Annexin V-FITC and PI staining based flow cytometry analysis (reference value: 8.60%); type: functional; details: time 42 hrs
H9c2 [11] = test: Upregulation of Ki-67 expression in rat H9c2 cells at 0.1 uM under hypoxic condition by qRT-PCR analysis; type: functional, cell-based
H9c2 [12] = test: Protection against hypoxia-induced cell damage in rat H9c2 cells at 0.1 uM incubated for 14 hrs by MTT assay; type: functional, cell-based
H9c2 [13] = test: Anti-apoptotic activity in rat H9c2 cells assessed as early apoptotic cells at 0.1 uM preincubated for 24 hrs followed by incubation under hypoxic condition for 18 hrs by Annexin V-FITC and PI staining based flow cytometry analysis (reference value: 4.06%); type: functional; details: time 42 hrs
H9c2 [14] = test: Anti-apoptotic activity in rat H9c2 cells assessed as necrotic cells at 0.1 uM preincubated for 24 hrs followed by incubation under hypoxic condition for 18 hrs by Annexin V-FITC and PI staining based flow cytometry analysis (reference value: 0.50%); type: functional; details: time 42 hrs
H9c2 [15] = test: Anti-apoptotic activity in rat H9c2 cells at 0.1 uM preincubated for 24 hrs followed by incubation under hypoxic condition for 18 hrs by Annexin V-FITC and PI staining based flow cytometry analysis; type: functional, cell-based; details: time 42.0 hrs
H9c2 [16] = test: Effect on PCNA expression in rat H9c2 cells at 0.1 uM under normoxic condition by qRT-PCR analysis; type: functional, cell-based
H9c2 [17] = test: Anti-apoptotic activity in rat H9c2 cells assessed as necrotic cells at 0.1 uM preincubated for 24 hrs followed by incubation under normoxic condition for 18 hrs by Annexin V-FITC and PI staining based flow cytometry analysis (reference value: 0.60%); type: functional; details: time 42 hrs
H9c2 [18] = test: Effect on PCNA expression in rat H9c2 cells at 0.1 uM under hypoxic condition by qRT-PCR analysis; type: functional, cell-based
H9c2 [19] = test: Anti-apoptotic activity in rat H9c2 cells at 0.1 uM preincubated for 24 hrs followed by incubation under normoxic condition for 18 hrs by Annexin V-FITC and PI staining based flow cytometry analysis; type: functional, cell-based; details: time 42.0 hrs
H9c2 [20] = test: Anti-apoptotic activity in rat H9c2 cells assessed as viable cells at 0.1 uM preincubated for 24 hrs followed by incubation under hypoxic condition for 18 hrs by Annexin V-FITC and PI staining based flow cytometry analysis (reference value: 85.85%); type: functional; details: time 42 hrs, read-out: Activity
H9c2 [21] = test: Anti-apoptotic activity in rat H9c2 cells at 0.1 uM under hypoxic condition by TUNEL staining based analysis; type: functional, cell-based
H9c2 [22] = test: Anti-apoptotic activity in rat H9c2 cells assessed as viable cells at 0.1 uM preincubated for 24 hrs followed by incubation under normoxic condition for 18 hrs by Annexin V-FITC and PI staining based flow cytometry analysis (reference value: 94.7%); type: functional; details: time 42 hrs, read-out: Activity
H9c2 [23] = test: Anti-apoptotic activity in rat H9c2 cells at 0.1 uM under normoxic condition by TUNEL staining based analysis; type: functional, cell-based
H9c2 [24] = test: Protection against hypoxia-induced cell damage in rat H9c2 cells at 0.05 uM incubated for 14 hrs by MTT assay; type: functional, cell-based
H9c2 [25] = test: Anti-apoptotic activity in rat H9c2 cells assessed as late apoptotic cells at 0.1 uM preincubated for 24 hrs followed by incubation under normoxic condition for 18 hrs by Annexin V-FITC and PI staining based flow cytometry analysis (reference value: 3.68%); type: functional; details: time 42 hrs
H9c2 [26] = test: Upregulation of Ki-67 expression in rat H9c2 cells at 0.1 uM under normoxic condition by qRT-PCR analysis; type: functional, cell-based
H9c2 [27] = test: Anti-apoptotic activity in rat H9c2 cells assessed as early apoptotic cells at 0.1 uM preincubated for 24 hrs followed by incubation under normoxic condition for 18 hrs by Annexin V-FITC and PI staining based flow cytometry analysis (reference value: 0.75%); type: functional; details: time 42 hrs
[28] = molecular target: T1, 20S proteasome (Homo sapiens); test: Activation of human erythrocyte-derived 20s proteosome assessed as fold maximum enhancement using T-L as peptide substrate by fluorescence based analysis; type: cell-based; details: filed as activator
[29] = molecular target: 26S proteasome (Homo sapiens) (UniProt Q99460+P49721+P20618+P28074+P28062+P28065+P28072+O00487+P25786+P25787+P25788+P25789+P28066+P60900+O14818+Q8TAA3+P40306+A5LHX3+P49720+P28070+Q99436+Q16186+P35998+P62191+P43686+P62333+P17980+P62195+Q13200+O43242+O00232+O00231+Q15008+P51665+Q9UNM6+P55036+P48556+P60896); test: Activation of 26s proteosome (unknown origin); type: protein-complex assay
[30] = molecular target: T1, 20S proteasome (Homo sapiens); test: Activation of human erythrocyte-derived 20s proteosome assessed as fold maximum enhancement using Casp-L as peptide substrate by fluorescence based analysis; type: cell-based; details: filed as activator
20S proteasome [31] = test: (§3) Activation of human erythrocyte-derived 20s proteosome using Casp-L as peptide substrate by fluorescence based analysis; type: cell-based
[32] = molecular target: T1, 20S proteasome (Homo sapiens); test: as §3; type: cell-based; details: filed as activator
20S proteasome [33] = test: as §2; type: cell-based
[34] = molecular target: T1, 20S proteasome (Homo sapiens); test: Activation of human erythrocyte-derived 20s proteosome assessed as fold maximum enhancement using CT-L as peptide substrate by fluorescence based analysis; type: cell-based; details: filed as activator
[35] = molecular target: T1, 20S proteasome (Homo sapiens); test: (§4) Activation of 20s proteosome (unknown origin) mediated chymotrypsin-like activity; type: protein-complex assay; details: filed as activator
[36] = molecular target: T1, 20S proteasome (Homo sapiens); test: Activation of 20s proteosome (unknown origin) mediated chymotrypsin-like activity assessed as fold maximum enhancement; type: protein-complex assay; details: filed as activator
20S proteasome [37] = test: as §4; type: protein-complex assay, Homo sapiens

EC50 (20S proteasome [1]): 3000 nM
EC200 [2]: 0.72 µM
Activity [3]: 359%
fold change (FC) [4]: 4.8
SMILES: Cc1ccc(Nc2cc(NCC(C)C)c3noc4c3c2C(=O)c2ccccc2-4)cc1

EC50 (20S proteasome [1]): 3020 nM
EC200 [2]: 0.7 µM
Activity [3]: 276%
fold change (FC) [4]: 3.54
SMILES: COc1ccc(Nc2cc(NCC(C)C)c3noc4c3c2C(=O)c2ccccc2-4)cc1

EC50 (20S proteasome [1]): 1570 nM
EC200 [2]: 0.61 µM
Activity [3]: 360%
fold change (FC) [4]: 5.03
SMILES: COc1ccc(Nc2cc(NCC(C)C)c(N)c3c2C(=O)c2ccccc2C3=O)cc1
Activity (H9c2 [6]): Active
Activity (H9c2 [7]): Active
Activity (H9c2 [8]): inactive
Activity (H9c2 [9]): inactive
inhibition (HEK293): Active
Activity (H9c2 [5]): Active

EC50 (20S proteasome [1]): 3380 nM
EC200 [2]: 0.67 µM
Activity [3]: 486%
fold change (FC) [4]: 6.38
SMILES: Cc1ccccc1Nc1cc(NCC(C)C)c2noc3c2c1C(=O)c1ccccc1-3
Activity (H9c2 [10]): 4.73%
Activity (H9c2 [11]): Active
Activity (H9c2 [12]): Active
Activity (H9c2 [13]): 1.18%
Activity (H9c2 [14]): 1.34%
Activity (H9c2 [15]): Active
Activity (H9c2 [16]): inactive
Activity (H9c2 [17]): 1.3%
Activity (H9c2 [18]): inactive
Activity (H9c2 [19]): inactive
viability at 0.1 µM (H9c2 [20]): 92.8%
Activity (H9c2 [21]): Active
viability at 0.1 µM (H9c2 [22]): 94.6%
Activity (H9c2 [23]): inactive
Activity (H9c2 [24]): Active
Activity (H9c2 [25]): 3.53%
inhibition (HEK293): Active
Activity (H9c2 [26]): Active
Activity (H9c2 [27]): 0.65%

fold change (FC) [28]: 4.37
Activity [29]: inactive
EC50 (20S proteasome [1]): 1830 nM and 850 nM
EC200 [2]: 0.46 µM and 0.38 µM
Activity [3]: 472%
fold change (FC) [30]: 9.77
EC50 (20S proteasome [31]): 1900 nM
EC200 [32]: 0.93 µM
EC50 (20S proteasome [33]): 2330 nM
EC200 [4]: 0.75 µM
fold change (FC) [4]: 5.98
fold change (FC) [34]: 6.22
SMILES: Cc1cccc(Nc2cc(NCC(C)C)c3noc4c3c2C(=O)c2ccccc2-4)c1
inhibition (HEK293): Active
Activity (H9c2 [5]): Active

EC50 (20S proteasome [1]): 4360 nM
EC200 [2]: 0.4 µM
Activity [3]: 594%
fold change (FC) [4]: 10.6
SMILES: CCCNc1cc(Nc2cccc(C)c2)c2c3c(onc13)-c1ccccc1C2=O

Further lines, the molecule ahead of its results:

SMILES: COc1ccc(NC(=O)c2cc(O)c3c(c2)C(=O)c2cccc(O)c2C3=O)cc1
EC50 (20S proteasome [1]): 2050 nM
EC200 [2]: 0.32 µM
Activity [3]: 696%
fold change (FC) [4]: 8.91

SMILES: O=C(Nc1ccc(N2CCOCC2)cc1)c1cc(O)c2c(c1)C(=O)c1cccc(O)c1C2=O
EC50 (20S proteasome [1]): 1800 nM
EC200 [2]: 0.2 µM
Activity [3]: 552%
fold change (FC) [4]: 6.36
Activity (H9c2 [5]): Active

SMILES: O=C(NCCN1CCOCC1)c1cc(O)c2c(c1)C(=O)c1cccc(O)c1C2=O
Activity [2]: inactive
Activity [3]: 68.6%

SMILES: O=C1c2cccc(O)c2C(=O)c2c(O)cc(C(=O)N3CCc4ccccc4C3)cc21
EC50 (20S proteasome [1]): 4020 nM
EC200 [2]: 1.14 µM
Activity [3]: 350%
fold change (FC) [4]: 3.79

SMILES: CCOC(=O)[C@]1(c2ccccc2)N=C(c2ccc(OC)cc2)N(Cc2ccccc2)[C@@H]1c1ccc(NCc2ccccc2)cc1
EC200 [2]: 0.91 µM
Activity [3]: 438%
EC200 [35]: 1.4 µM
fold change (FC) [4]: 4.31
fold change (FC) [36]: 8.3

SMILES: CC1(C)CC[C@]2(C(=O)O)CC[C@]3(C)C(=CC[C@@H]4[C@@]5(C)CC[C@H](O)C(C)(C)[C@@H]5CC[C@]43C)[C@@H]2C1 [OLEANOLIC_ACID]
EC50 (20S proteasome [37]): 2700 nM
fold change (FC) [36]: 8
